Experimental data reported in ChEMBL document CHEMBL4011612, “4-Anilino-pyrimidine, novel aldosterone synthase (CYP11B2) inhibitors bearing pyrimidine structures” (Bioorg Med Chem Lett, 2017).
≈ marks a conversion by molar mass, not a printed value. Calls of active or inactive are those of the source. The calls are words filed in the database; no cut-off is given here.

Tests used:
[1] = molecular target: T1, Cytochrome P450 11B2, mitochondrial (Homo sapiens, UniProt P19099)
T1 sequence (P19099 whole entry): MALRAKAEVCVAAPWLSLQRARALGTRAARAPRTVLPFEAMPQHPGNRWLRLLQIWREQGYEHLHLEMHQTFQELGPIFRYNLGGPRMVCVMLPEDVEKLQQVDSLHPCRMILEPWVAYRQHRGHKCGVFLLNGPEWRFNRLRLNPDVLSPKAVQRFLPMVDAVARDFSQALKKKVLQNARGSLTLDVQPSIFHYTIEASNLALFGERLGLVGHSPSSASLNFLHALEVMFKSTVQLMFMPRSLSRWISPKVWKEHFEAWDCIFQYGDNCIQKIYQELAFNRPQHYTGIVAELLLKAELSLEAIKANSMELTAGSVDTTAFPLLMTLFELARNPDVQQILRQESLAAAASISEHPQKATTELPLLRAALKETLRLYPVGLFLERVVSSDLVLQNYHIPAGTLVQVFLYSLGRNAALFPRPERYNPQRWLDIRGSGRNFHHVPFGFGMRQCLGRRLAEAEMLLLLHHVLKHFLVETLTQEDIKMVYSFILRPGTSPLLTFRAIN
Description: Inhibition of human CYP11B2 expressed in HEK293A cells using deoxycorticosterone as substrate pretreated for 1 hr followed by substrate addition measured after 1 hr by HTRF assay

[2] = molecular target: T2, Cytochrome P450 11B2, mitochondrial (Mus musculus, UniProt P15539)
T2 sequence (P15539 whole entry): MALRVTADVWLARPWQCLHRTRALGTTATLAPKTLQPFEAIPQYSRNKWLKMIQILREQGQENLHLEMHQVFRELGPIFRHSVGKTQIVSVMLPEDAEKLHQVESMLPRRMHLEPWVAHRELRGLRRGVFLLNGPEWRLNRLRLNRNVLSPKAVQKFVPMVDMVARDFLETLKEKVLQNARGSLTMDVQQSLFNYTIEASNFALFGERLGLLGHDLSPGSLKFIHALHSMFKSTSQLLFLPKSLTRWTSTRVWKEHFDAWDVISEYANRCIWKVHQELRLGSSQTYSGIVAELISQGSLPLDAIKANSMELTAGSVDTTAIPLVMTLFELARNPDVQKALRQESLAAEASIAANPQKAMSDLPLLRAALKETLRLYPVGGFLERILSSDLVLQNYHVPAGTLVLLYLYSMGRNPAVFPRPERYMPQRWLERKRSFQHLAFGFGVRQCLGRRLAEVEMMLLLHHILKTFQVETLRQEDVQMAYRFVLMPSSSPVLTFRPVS
Description: Inhibition of mouse CYP11B2 expressed in HEK293 cells using deoxycorticosterone as substrate pretreated for 1 hr followed by substrate addition after 2 hrs by HTRF assay

[3] = molecular target: T3, Cytochrome P450 11B1, mitochondrial (Homo sapiens, UniProt P15538); experiment: Inhibition of human CYP11B1 expressed in HEK293A cells; format: ADME, cell-based, HEK293
T3 sequence (P15538 whole entry): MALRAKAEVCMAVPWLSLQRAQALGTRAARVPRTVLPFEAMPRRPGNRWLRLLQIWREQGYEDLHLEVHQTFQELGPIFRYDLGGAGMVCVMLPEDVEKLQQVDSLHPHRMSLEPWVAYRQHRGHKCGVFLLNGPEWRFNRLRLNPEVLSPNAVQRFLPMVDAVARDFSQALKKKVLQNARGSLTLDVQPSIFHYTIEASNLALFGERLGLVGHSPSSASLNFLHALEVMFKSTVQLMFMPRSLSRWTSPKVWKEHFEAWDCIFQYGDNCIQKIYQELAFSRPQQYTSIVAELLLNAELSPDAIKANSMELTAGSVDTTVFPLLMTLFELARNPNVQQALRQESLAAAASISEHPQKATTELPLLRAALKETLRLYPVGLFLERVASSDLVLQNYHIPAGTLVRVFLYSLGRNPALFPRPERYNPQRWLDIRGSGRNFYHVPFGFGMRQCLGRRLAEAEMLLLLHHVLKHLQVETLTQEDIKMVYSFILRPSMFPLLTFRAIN

CYP1A2 = molecular target: T4, CYP1A2 (Homo sapiens, UniProt P05177); experiment: Inhibition of CYP1A2 (unknown origin) at 10 uM; format: ADME
T4 sequence (P05177 whole entry): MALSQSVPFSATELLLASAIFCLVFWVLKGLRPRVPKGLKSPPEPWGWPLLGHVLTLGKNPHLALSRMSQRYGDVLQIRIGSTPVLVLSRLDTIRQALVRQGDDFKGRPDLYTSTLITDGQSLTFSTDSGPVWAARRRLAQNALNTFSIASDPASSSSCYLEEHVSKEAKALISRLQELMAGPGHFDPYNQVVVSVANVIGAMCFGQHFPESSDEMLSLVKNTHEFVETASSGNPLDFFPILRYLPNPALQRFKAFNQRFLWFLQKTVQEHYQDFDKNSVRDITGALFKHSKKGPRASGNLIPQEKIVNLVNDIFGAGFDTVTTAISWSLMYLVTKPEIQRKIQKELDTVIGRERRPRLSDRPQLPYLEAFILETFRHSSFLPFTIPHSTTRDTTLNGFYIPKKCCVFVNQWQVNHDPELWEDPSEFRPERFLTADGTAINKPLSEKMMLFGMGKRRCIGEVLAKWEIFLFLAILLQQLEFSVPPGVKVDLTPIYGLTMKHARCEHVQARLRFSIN

CYP19 (aromatase) = molecular target: T5, CYP19 (aromatase) (Homo sapiens, UniProt P11511); experiment: Inhibition of CYP19 (unknown origin) at 1 uM
T5 sequence (P11511 whole entry): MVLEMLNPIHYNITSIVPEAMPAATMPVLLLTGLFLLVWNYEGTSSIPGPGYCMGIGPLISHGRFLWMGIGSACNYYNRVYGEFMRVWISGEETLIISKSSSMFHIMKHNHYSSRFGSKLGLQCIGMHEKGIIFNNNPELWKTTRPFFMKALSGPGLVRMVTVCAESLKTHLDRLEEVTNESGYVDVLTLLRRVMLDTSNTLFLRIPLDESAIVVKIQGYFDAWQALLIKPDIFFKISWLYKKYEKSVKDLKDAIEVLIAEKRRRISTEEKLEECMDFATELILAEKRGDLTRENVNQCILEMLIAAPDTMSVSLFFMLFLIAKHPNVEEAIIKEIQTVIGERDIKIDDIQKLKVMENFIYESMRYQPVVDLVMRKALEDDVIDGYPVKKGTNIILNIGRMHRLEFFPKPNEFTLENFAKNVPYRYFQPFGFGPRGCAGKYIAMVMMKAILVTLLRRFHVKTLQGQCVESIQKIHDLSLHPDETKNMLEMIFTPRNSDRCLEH

[4] = Tmax in cynomolgus monkey at 3 mg/kg, po administered as single dose; format: ADME, organism-based, Macaca fascicularis; conditions: in vivo
Liver = experiment: Metabolic stability in human liver microsomes; format: ADME, microsome
[5] = Solubility of the compound at pH 6.8; format: physicochemical; conditions: buffer
[6] = Solubility of the compound at pH 1.2; format: physicochemical; conditions: buffer
CYP2C9 = CYP2C9 (Homo sapiens, UniProt P11712); experiment: Inhibition of CYP2C9 (unknown origin) at 10 uM; format: ADME
[7] = Cmax in cynomolgus monkey at 3 mg/kg, po administered as single dose; format: ADME, organism-based, Macaca fascicularis; set-up: dose 3 mg/kg, route oral; conditions: in vivo
[8] = Plasma protein binding in mouse; format: ADME, cell-free; conditions: read-out: PPB (converted)
[9] = Total AUC in cynomolgus monkey at 3 mg/kg, po administered as single dose; format: ADME, organism-based, Macaca fascicularis; set-up: dose 3 mg/kg, time AUCmax, route oral; conditions: in vivo
[10] = Half life in cynomolgus monkey at 3 mg/kg, po administered as single dose; format: ADME, organism-based, Macaca fascicularis; conditions: in vivo
CYP3A4 = CYP3A4 (Homo sapiens, UniProt P08684); experiment: Inhibition of CYP3A4 (unknown origin) at 10 uM
CYP2D6 = CYP2D6 (Homo sapiens, UniProt P10635); experiment: Inhibition of CYP2D6 (unknown origin) at 10 uM; format: ADME
[11] = Inhibition of monkey CYP11B2; set-up: species or system Macaca mulatta
[12] = molecular target: T6, Cytochrome P450 11B2, mitochondrial (Rattus norvegicus, UniProt P30099); experiment: Inhibition of rat CYP11B2
T6 sequence (P30099 whole entry): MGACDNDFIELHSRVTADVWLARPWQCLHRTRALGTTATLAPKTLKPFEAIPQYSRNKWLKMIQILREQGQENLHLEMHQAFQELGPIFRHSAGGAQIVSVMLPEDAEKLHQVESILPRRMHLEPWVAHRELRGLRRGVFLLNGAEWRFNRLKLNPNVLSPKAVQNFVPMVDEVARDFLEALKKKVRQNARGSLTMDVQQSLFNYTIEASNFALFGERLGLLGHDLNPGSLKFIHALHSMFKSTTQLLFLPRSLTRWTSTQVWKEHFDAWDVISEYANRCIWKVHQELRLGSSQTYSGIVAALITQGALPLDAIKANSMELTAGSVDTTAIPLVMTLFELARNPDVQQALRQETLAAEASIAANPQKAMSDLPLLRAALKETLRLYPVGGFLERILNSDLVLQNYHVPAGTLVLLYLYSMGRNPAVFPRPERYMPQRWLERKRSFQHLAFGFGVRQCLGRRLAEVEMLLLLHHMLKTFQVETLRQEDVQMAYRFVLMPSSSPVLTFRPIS

Cynomolgus monkey = experiment: Decrease in plasma aldosterone level in furosemide-induced cynomolgus monkey at 3 mg/kg, po administered as single dose by radioimmunoassay; format: functional, organism-based; conditions: Macaca fascicularis

Sequence of CYP2C9 (P11712 whole entry): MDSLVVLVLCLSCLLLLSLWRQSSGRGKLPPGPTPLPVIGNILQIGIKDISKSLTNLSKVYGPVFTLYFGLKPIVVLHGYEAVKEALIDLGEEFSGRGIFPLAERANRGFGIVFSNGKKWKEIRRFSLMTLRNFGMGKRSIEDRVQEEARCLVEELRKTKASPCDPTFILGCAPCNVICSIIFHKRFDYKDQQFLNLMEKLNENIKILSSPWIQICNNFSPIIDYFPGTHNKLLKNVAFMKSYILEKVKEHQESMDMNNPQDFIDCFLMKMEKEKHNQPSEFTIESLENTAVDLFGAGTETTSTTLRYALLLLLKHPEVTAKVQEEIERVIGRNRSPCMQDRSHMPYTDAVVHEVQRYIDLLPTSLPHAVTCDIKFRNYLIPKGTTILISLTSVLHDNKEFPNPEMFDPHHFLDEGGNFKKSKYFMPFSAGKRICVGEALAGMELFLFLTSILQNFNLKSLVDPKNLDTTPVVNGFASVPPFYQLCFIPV
Sequence of CYP3A4 (P08684 whole entry): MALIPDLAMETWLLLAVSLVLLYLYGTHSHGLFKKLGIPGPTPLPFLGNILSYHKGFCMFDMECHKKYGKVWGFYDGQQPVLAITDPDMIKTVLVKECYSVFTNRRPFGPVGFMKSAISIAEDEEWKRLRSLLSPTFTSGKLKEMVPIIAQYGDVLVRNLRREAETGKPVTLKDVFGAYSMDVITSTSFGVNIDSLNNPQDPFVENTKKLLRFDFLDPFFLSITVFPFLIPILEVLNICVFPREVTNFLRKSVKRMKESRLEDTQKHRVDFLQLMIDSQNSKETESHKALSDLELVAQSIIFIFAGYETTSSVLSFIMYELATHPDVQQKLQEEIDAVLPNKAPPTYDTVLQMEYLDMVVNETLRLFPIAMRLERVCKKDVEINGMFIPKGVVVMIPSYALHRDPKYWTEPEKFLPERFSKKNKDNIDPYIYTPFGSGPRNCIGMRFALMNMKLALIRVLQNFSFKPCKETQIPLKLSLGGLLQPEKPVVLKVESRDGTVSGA
Sequence of CYP2D6 (P10635 whole entry): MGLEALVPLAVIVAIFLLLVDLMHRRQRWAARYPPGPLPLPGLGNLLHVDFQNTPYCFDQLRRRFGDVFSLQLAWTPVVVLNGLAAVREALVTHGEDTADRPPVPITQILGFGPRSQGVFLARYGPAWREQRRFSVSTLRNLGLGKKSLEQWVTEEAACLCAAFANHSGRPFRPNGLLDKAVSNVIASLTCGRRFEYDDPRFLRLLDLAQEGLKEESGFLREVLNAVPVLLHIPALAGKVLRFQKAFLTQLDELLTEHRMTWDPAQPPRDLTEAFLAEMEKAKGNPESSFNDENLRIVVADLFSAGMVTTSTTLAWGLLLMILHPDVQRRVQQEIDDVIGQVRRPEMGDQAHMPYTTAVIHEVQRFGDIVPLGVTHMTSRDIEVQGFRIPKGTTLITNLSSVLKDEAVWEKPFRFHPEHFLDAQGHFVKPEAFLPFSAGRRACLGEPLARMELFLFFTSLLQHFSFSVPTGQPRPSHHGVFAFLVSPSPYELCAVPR

Row | IC50 [1] | IC50 [2] | IC50 [3] | Compound | other results
1 | 300 nM | 1380 nM |  | CS(=O)(=O)N1CCC(O)(c2cncnc2Nc2ccc(F)cc2)CC1 | 
2 | 109 nM | 5100 nM |  | CS(=O)(=O)N1CCC(C(=O)c2cncnc2Nc2ccc(F)cc2)CC1 | 
3 | 144 nM | 1470 nM |  | CS(=O)(=O)N1CCC(C(O)c2cncnc2Nc2ccc(F)cc2)C1 (mixture of isomers) | 
4 | 8 nM | 2740 nM | 110 nM | CS(=O)(=O)N1CCC(C(O)c2cncnc2Nc2cccc3ccccc23)CC1 (racemic) | 
5 | 14 nM | > 10000 nM |  | COc1ccc(Nc2ncncc2C(O)C2CCN(S(C)(=O)=O)CC2)cc1 (racemic) | 
6 | 30 nM | 440 nM | 93 nM | OC(c1ccccc1)c1cncnc1Nc1ccc(F)cc1 (racemic) | 
7 | 2 nM | 1340 nM | 11 nM | CS(=O)(=O)N1CCC(C(O)c2cncnc2Nc2ccc(C#N)cc2)CC1 (racemic) | 
8 | 2 nM | 102 nM | 6 nM | CC(O)(c1cncnc1Nc1ccc(F)cc1)C1CCN(S(C)(=O)=O)CC1 (racemic) | 
9 | 48 nM | 170 nM | 124 nM | CCCCC(O)(c1cncnc1Nc1ccc(F)cc1)C1CCN(S(C)(=O)=O)CC1 (racemic) | 
10 | 5 nM | 1100 nM | 13 nM | CS(=O)(=O)N1CCC(C(O)c2cncnc2Nc2cccc(F)c2)CC1 (racemic) | 
11 | 300 nM | 1310 nM |  | OC(c1cncnc1Nc1ccc(F)cc1)C1CCNCC1 (racemic) | 
12 | 15 nM | 1760 nM | 42 nM | CS(=O)(=O)N1CCC(C(O)c2cncnc2Nc2ccccc2)CC1 (racemic) | 
13 | 4 nM | 10 nM | 2 nM | CS(=O)(=O)N1CCC(C(O)(c2cncnc2Nc2ccc(F)cc2)C(F)(F)F)CC1 (racemic) [listing 1 of 2 here] | inhibition at 10 µM (CYP1A2): < 0%; inhibition at 1 µM (CYP19 (aromatase)): 16%; Tmax [4]: 2.67 h; Stability (Liver): 100%; solubility [5]: 260 µg/mL (≈ 580 µM); solubility [6]: 860 µg/mL (≈ 1920 µM); inhibition at 10 µM (CYP2C9): 3.4%; Cmax [7]: 515 ng/mL; fraction unbound [8]: 0.185; AUC [9]: 3300 ng·h/mL; half-life [10]: 2.31 h; inhibition at 10 µM (CYP3A4): 4.1%; inhibition at 10 µM (CYP2D6): 5.8%
14 | 83 nM |  |  | CS(=O)(=O)N1CCC(C(O)c2cncnc2Cc2ccccc2)CC1 (racemic) | 
15 | 0.4 nM | 257 nM | 0.6 nM | CS(=O)(=O)N1CCC(C(O)c2cncnc2Sc2ccc(F)cc2)CC1 (racemic) | 
16 | 3 nM | 798 nM | 16 nM | CS(=O)(=O)N1CCC(C(O)c2cncnc2Nc2ccc(C(F)(F)F)cc2)CC1 (racemic) | 
17 | 8 nM | 1890 nM | 19 nM | Cc1ccc(Nc2ncncc2C(O)C2CCN(S(C)(=O)=O)CC2)cc1 (racemic) | 
18 | 5 nM | 21 nM | 13 nM | CC(C)C(O)(c1cncnc1Nc1ccc(F)cc1)C1CCN(S(C)(=O)=O)CC1 (racemic) | 
19 | 3 to 3.1 nM | 300 to 301 nM | 10 nM | CS(=O)(=O)N1CCC(C(O)c2cncnc2Nc2ccc(F)cc2)CC1 (racemic) | IC50 [11]: 2.7 nM; IC50 [12]: 300 nM
20 | 192 nM | 3130 nM |  | CS(=O)(=O)N1CCC(CC(O)c2cncnc2Nc2ccc(F)cc2)CC1 (racemic) | 
21 | 75 nM | 911 nM | 181 nM | CCCC(O)c1cncnc1Nc1ccc(F)cc1 (racemic) | 
22 |  |  |  | CS(=O)(=O)N1CCC(C(O)(c2cncnc2Nc2ccc(F)cc2)C(F)(F)F)CC1 (racemic) [listing 2 of 2 here] | Activity (Cynomolgus monkey): Active
23 | 0.73 nM | 0.73 nM | 1.1 nM | CS(=O)(=O)N1CCC(C(O)(c2cncnc2Nc2ccc(F)cc2)C(F)(F)F)CC1 (single isomer, unassigned; isomer 1) | 
24 | > 100 nM | > 100 nM | > 300 nM | CS(=O)(=O)N1CCC(C(O)(c2cncnc2Nc2ccc(F)cc2)C(F)(F)F)CC1 (single isomer, unassigned; isomer 2) | 
